US20250179465A1, “SITE-SPECIFIC ENCODING OF FLUORINATED PHENYLALANINE RESIDUES IN BACTERIAL AND MAMMALIAN CELLS” (University of Iowa Research Foundation, priority 2022, published 2025)

Key:
sfGFP_N150TAG = assay: Permissivity screen (mammalian), lysate GFP fluorescence; format: cell-based, human; conditions: HEKT cells, PheX-D6, result in words
Description: HEKT cells were seeded in 60 mm dishes so that they would be approximately 60-80% confluent the next day. We transfected the cells using 1.75 μg of the PacBac1-based synthetase plasmid (PheX-D6 or PheX-B5) and 0.75 μg of sfGFP_N150TAG per dish. Polyjet was used (7.5 μl per dish, 2.5 mL media volume). Media was exchanged to contain ncAAs at a given concentration before transfection and approximately 16 hours after transfection. Amino acids were solubilized either in NaOH for those synthesized as free acids (penta-flouro, 2,3,6 trifluoro, 3,4,5 trifluoro, 2,5 difluoro, 2,4 difluoro, 2 mono) or in HCl for those synthesized as HCl salts (2,3,5,6 tetrafluoro, 2,3,4,5 tetrafluoro, 2,6 difluoro). Cells were imaged and harvested approximately 24 hrs after transfection. Images were taken with 20× objective using a Leica DFC9000GT camera with 700 ms exposure, without binning. Excitation was through an X-Cite 120 LED (Lumen Dynamics) set to 100% intensity. For bright field images, light was adjusted manually. […] After cell debris and nuclei were cleared via centrifugation, GFP fluorescence was read from supernatants in 96 well plates; for each concentration of amino acid, at least 6 readings were made from at least 2 transfections. The level of fluorescence from lysates from untransfected cells averaged 21.7±2.1 RFU. […]

sfGFP-N150TAG = assay: Permissivity screen (E. coli), sfGFP-N150TAG rescue fluorescence; format: cell-based; conditions: result in words; for encoding level in E. coli by the synthetases tested: 1 mM ncAA, 24 hours
Description: Electrocompetent DH10B cells containing the pALS reporter plasmid were transformed with isolated pBK plasmids containing the synthetases. Cultures of 5 mL were inoculated with single colonies of each synthetase in non-inducing media with 50 μg/mL kanamycin and 25 μg/mL tetracycline and grown for 16 hours. Noncanonical amino acid stocks were made at 100× their final concentration. 96-well blocks were prepared with 500 μL of auto-induction media containing antibiotics, and ncAAs with a final working concentration of 1 mM were added to their respective wells. Each well was then inoculated with a corresponding synthetase, yielding a final 96-well block where each synthetase was tested against each amino acid of interest. Cultures were grown in duplicate and fluorescence measurements were taken at 24 hours.

PheX-D6 [1] = target: T1, PheX-D6 (Methanosarcina barkeri, UniProt Q6WRH6, C313M/N311A/V366G/W382T); assay: ESI-MS encoding fidelity of sfGFP_N150TAG expressed in HEK 293T cells with PheX-D6; format: cell-based, human; design: Phex-D6 HEK; expressed in transfected cells; host or cells: HEK 293T; conditions: PheX-D6, HEK 293T cells, 2 mM ncAA, estimated
Description: (§1) HEK 293T cells were expanded in […]. […] Overall, 7-40 dishes were transfected with master mixes such that each dish received 3.5 μg of pACBAC1, 1.5 μg sfGFP_N150TAG, and 15 μL of PolyJET according to manufacturer's instructions. Media was changed before transfection and approximately 18 hrs after transfection. Cells were harvested approximately 36 hours after transfection. To harvest, each dish was washed twice with DPBS. Cells were harvested via scraping in ice-cold DPBS plus Roche protease inhibitors, on ice, pelleted by centrifugation, and flash frozen in liquid nitrogen. Cells were lysed in hypotonic lysis buffer (10 mM Tris/HCl pH 8, Roche protease inhibitors, 0.1% Triton X 100 Sigma) via dounce homogenization on ice. Cell debris and nuclei were cleared via centrifugation. Clarified lysate was diluted 1:2 in Wash buffer (25 mM Tris/HCl pH 8, 20 mM Imidazole, 150 mM NaCl) and applied to pre-equilibrated Ni-NTA resin (Qiagen). Column was washed in at least 30 volumes of wash buffer, then protein was eluted in elution buffer (25 mM Tris/HCl pH 8, 250 mM Imidazole, 150 mM NaCl). Elution was exchanged into 100 mM TEAB, prepared via 1:10 dilution of 1 M Stock (thermofisher) in ultrapure water. Finally, protein was concentrated to ˜0.5 mg/ml, flash frozen, and submitted to Novatia Inc for ESI mass spec of the intact protein. […] The spectra was analyzed in-house by Novatia (Promass software) to yield relative intensities of the dominant mass and any other apparent peaks. […] To be conservative, all other peaks were considered unexpected mass, even though they may not represent actual misincorporation.
Target sequence in this assay (Q6WRH6 other isoform, or with tags, fused parts or gaps N311A/C313M/V366G/W382T): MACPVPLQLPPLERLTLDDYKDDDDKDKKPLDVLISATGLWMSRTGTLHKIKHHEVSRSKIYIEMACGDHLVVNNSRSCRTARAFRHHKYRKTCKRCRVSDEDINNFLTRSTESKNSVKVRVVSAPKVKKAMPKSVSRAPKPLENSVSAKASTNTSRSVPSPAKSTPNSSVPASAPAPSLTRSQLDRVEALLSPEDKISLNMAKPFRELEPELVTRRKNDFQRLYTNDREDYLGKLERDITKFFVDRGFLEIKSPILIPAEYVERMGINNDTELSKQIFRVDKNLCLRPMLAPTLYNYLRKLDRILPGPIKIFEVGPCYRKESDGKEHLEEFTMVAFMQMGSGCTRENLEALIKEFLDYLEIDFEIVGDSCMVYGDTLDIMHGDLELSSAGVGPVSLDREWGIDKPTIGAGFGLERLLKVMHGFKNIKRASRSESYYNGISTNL

PheX-B5 [2] = target: T2, PheX-B5 (Methanosarcina barkeri, UniProt Q6WRH6, C313A/N311G); assay: ESI-MS encoding fidelity of sfGFP_N150TAG expressed in HEK 293T cells with PheX-B5; format: cell-based, human; design: Phex-B5 HEK; expressed in transfected cells; host or cells: HEK 293T; conditions: for fidelity (encoding): PheX-B5, HEK 293T cells, sfGFP_N150TAG, 2 mM ncAA, ESI-MS, estimated
Description: as §1
Target sequence in this assay (Q6WRH6 other isoform, or with tags, fused parts or gaps N311G/C313A): as the sequence (Q6WRH6 other isoform, or with tags, fused parts or gaps N311A/C313M/V366G/W382T) above, with A336G, M338A, G391V, T407W counted along it

PheX-D6 [3] = target: T1, PheX-D6; assay: ESI-MS encoding fidelity of sfGFP_N150TAG expressed in E. coli with PheX-D6; format: cell-based; design: Phex-D6 ECOLI; expressed in transfected cells; host or cells: E. coli; conditions: sfGFP N150TAG, 1 mM ncAA, intact protein ESI-MS
Description: (§2) Previously existing E. coli containing sfGFP150TAG and a given Rs in non-inducing media were used to inoculate 5 mL cultures of non-inducing media containing 50 μg/mL Kan and 25 μg/mL Tet. Cultures were incubated for 20 hours at 37° C., shaking at 250 rpm. After adequate growth, 500 μL of the 5 mL cultures were used to inoculate 50 mL cultures of auto-inducing media containing 1 mM ncAA. Cultures were incubated for 24 hours (37° C., 250 rpm), after which cultures were then spun down at 5000 rcf for 10 minutes and resuspended in 10 mL of a Tris buffer solution containing 100 mM Tris, 0.5 M NaCl, and 5 mM imidazole. Cells were lysed by micro-fluidization at 18,000 psi and centrifuged at […] for 30 minutes. sfGFP proteins in cell lysate were bound to TALON Metal Affinity Resin (bed volume of 100 μL) at 4° C. for 1 hour. Lysate and bound resin were transferred to a gravity-flow column and the resin was washed with 30 bed volumes of buffer. Protein was eluted using Tris buffer solution previously described supplemented with 200 mM imidazole. Protein concentration was assessed by comparing sfGFP fluorescence to a standard curve and submitted for ESI-MS.
(§3) The spectra were analyzed in-house by Novatia (Promass) to yield relative intensities at given masses. […] For the purpose of estimating encoding fidelity, these were considered part of the expected mass, and all other signals were considered non-expected mass.
Target sequence in this assay (Q6WRH6 whole entry N311A/C313M/V366G/W382T): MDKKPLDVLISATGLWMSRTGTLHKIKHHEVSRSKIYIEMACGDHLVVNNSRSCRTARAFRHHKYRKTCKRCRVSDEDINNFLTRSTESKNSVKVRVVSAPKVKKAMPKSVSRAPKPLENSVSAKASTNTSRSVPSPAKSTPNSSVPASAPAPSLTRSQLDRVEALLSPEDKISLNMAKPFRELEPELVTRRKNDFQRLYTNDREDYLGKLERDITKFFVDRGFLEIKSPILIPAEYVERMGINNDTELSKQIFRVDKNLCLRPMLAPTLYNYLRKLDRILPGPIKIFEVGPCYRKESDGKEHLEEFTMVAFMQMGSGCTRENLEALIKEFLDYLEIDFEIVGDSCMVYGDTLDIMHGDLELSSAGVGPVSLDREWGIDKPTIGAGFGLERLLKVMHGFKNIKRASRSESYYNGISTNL

PheX-B5 [4] = target: T2, PheX-B5; format: cell-based; design: Phex-B5 ECOLI; expressed in transfected cells; host or cells: E. coli; conditions: PheX-B5, E. coli, sfGFP N150TAG, 1 mM ncAA, intact protein ESI-MS
Description: as §2, §3
Target sequence in this assay (Q6WRH6 whole entry N311G/C313A): as the sequence (Q6WRH6 whole entry N311A/C313M/V366G/W382T) above, with A311G, M313A, G366V, T382W counted along it

F508TAG-CFTR = assay: Western blot of full-length F508TAG-CFTR expression via PheX-D6; format: cell-based, human; conditions: F508TAG CFTR with PheX-D6, HEK 293T, 2 mM ncAA, result in words
Description: (§4) pCMV-CFTR was a gift from Paul McCray (University of Iowa). WT CFTR-TAA (the existing TAG stop codon changed to TAA), F508 TAG CFTR (TAG amber codon introduced at F508 in the above WT construct), as well as WT and F1486TAG hNav 1.5_strep_HIS_strep were produced using standard methods and sequenced through the open reading frame. For expression of WT CFTR, 10 cm dishes of HEK 293T cells were transfected with 1.5 μg WT CFTR-TAA and 0.25 μg WT GFP. For expression of WT hNav 1.5, 10 cm dishes of HEK 293T cells were transfected with 1.5 μg of WT hNav 1.5_strep_HIS_strep and 0.25 μg WT GFP. For encoding of 2,3,6F Phe, 10 cm dishes of HEK 293T cells were transfected from master mixes of DNA such that each dish received 3.5 μg of PheX-D6 and 0.25 μg of sfSFGFP_N150TAG. Depending on condition, 2 μg of F508TAG-CFTR or 1.5 μg of F1486TAG-Nav 1.5-SHS were added. Media was changed twice (˜16 hr and ˜32 hr post transfection), and cells were harvested ˜44 hrs post transfection and flash frozen in aliquots. Cell pellets were resuspended in RIPA (Sigma Aldrich) plus Roche protease inhibitors. 60 μg of protein from cleared, unconcentrated lysate (or a dilution) was loaded on 4-20% SDS gels. […]

F1486TAG-hNav 1.5 = assay: Western blot of full-length F1486TAG-hNav 1.5 expression via PheX-D6; format: cell-based, human; conditions: F1486TAG hNav 1.5 with PheX-D6, HEK 293T, 2 mM ncAA, result in words
Description: as §4

| Structure (SMILES) | useable ncAA concentration (dose-response) (sfGFP_N150TAG) | encoding level in E. coli by the synthetases tested (sfGFP-N150TAG) | fidelity (encoding) (PheX-D6 [1]) | fidelity (encoding) (PheX-B5 [2]) | encoding fidelity (PheX-D6 [3]) | encoding fidelity (PheX-B5 [4]) | expression in the screen (sfGFP-N150TAG; E. coli, D6 synthetase) | site-specificity of encoding (ESI-MS) (PheX-B5 [2]; HEKT cells, sfGFP-N150TAG with PheX-B5, result in words) | expression of full-length channel (western blot) (F508TAG-CFTR) | expression of full-length channel (western blot) (F1486TAG-hNav 1.5) |
| --- | --- | --- | --- | --- | --- | --- | --- | --- | --- | --- |
| N[C@@H](Cc1c(F)c(F)c(F)c(F)c1F)C(=O)O [Penta-fluoro Phe, 2,3,4,5,6 penta-fluoro Phenylalanine] | useable at sub-millimolar concentrations | comparable levels to para-methyl tetra-fluoro Phe | 97.5% | 96.2% | 98.2% | 97.5% | – | – | – | – |
| N[C@@H](Cc1c(F)c(F)cc(F)c1F)C(=O)O [2,3,5,6-fluoro Phe, 2,3,5,6 tetra-fluoro Phenylalanine] | – | comparable levels to para-methyl tetra-fluoro Phe | 98.2% | 100% | 98.7% | 97.9% | – | – | – | – |
| N[C@@H](Cc1cc(F)c(F)c(F)c1F)C(=O)O [2,3,4,5-fluoro phenylalanine, 2,3,4,5 tetra-fluoro Phenylalanine] | – | – | 100% | 97.4% | – | – | – | – | – | – |
| N[C@@H](Cc1cc(F)ccc1F)C(=O)O [2,5-fluoro phenylalanine, 2,5-difluoro-Phe] | – | – | 95.6% | 91.3% | – | – | – | – | – | – |
| N[C@@H](Cc1ccccc1F)C(=O)O [2-fluoro Phe, 2-mono fluoro Phenylalanine] | – | – | – | – | – | 95.6% | low expression in the screen | widespread encoding of 2-mono fluoro Phe at Phe-codons | – | – |
| N[C@@H](Cc1c(F)ccc(F)c1F)C(=O)O [2,3,6-fluoro Phe, 2,3,6 tri-fluoro Phenylalanine] | – | – | 98.5% | 100% | 96.7% | 88.1% | – | – | dependent on addition of 2,3,6F Phe | dependent on addition of 2,3,6F Phe |
| N[C@@H](Cc1c(F)cccc1F)C(=O)O [2,6-fluoro Phe, 2,6 di-fluoro Phenylalanine] | – | – | 97.6% | 100% | 95.0% | 81.8% | – | – | – | – |
